Results published in ChEMBL document CHEMBL5331104, “Discovery of BRD4-HDAC Dual Inhibitors with Improved Fungal Selectivity and Potent Synergistic Antifungal Activity against Fluconazole-Resistant Candida albicans” (J Med Chem, 2023).
Values after ≈ are worked out from the molar mass of the structure shown. Active and inactive are the calls of the source. The rule behind the calls is not given here.

Columns and labels:
Histone deacetylase 1 = Histone deacetylase 1 (Homo sapiens, UniProt Q13547); assay: Inhibition of full-length recombinant human HDAC1 (1 to 482 residues) expressed in baculovirus infected insect cells using […] as substrate incubated for 30 mins by fluorescence based analysis; design: species or system Insect cell
Nakaseomyces glabratus [1] = assay: Antifungal activity against Candida glabrata 4408 assessed as microbial growth inhibition; type: functional
HL-60 = assay: Antiproliferative activity against human HL-60 cells incubated for 48 hrs by CCK8 assay; type: functional, cell-based; conditions: HL-60, 48 h
Histone deacetylase = assay: Inhibition of total HDAC in human HUVEC cells using Boc-Lys(Ac)-AMC as substrate preincubated for 12 hrs followed by substrate addition measured after 6 hrs by microtiter plate reader analysis; type: cell-based
K562 = assay: Antiproliferative activity against human K562 cells incubated for 48 hrs by CCK8 assay; type: functional, cell-based; conditions: K562, 48 h
HEL = assay: Antiproliferative activity against human HEL cells incubated for 48 hrs by CCK8 assay; type: functional, cell-based
Candida albicans [2] = assay: Antifungal activity against Candida albicans SC5314 assessed as fungal growth inhibition incubated for 24 hrs by broth dilution method; type: functional
Cryptococcus neoformans [3] = assay: Antifungal activity against Cryptococcus neoformans H99 assessed as fungal growth inhibition incubated for 24 hrs by broth dilution method; type: functional
Candida albicans [4] = assay: microbe, parasite or virus in culture; type: functional; conditions: 0304103
Description: Antifungal activity against Candida albicans 0304103 assessed as microbial growth inhibition

Candida albicans [5] = assay: microbe, parasite or virus in culture; type: functional; conditions: 0304103, time 24 hrs
Description: Synergetic antifungal activity against Candida albicans 0304103 assessed as microbial growth inhibition incubated for 24 hrs in the presence of fluconazole by checkerboard microdilution method

Candida albicans [6] = type: functional, 0304103; conditions: time 24 hrs
Description: Synergetic antifungal activity against Candida albicans 0304103 assessed as fractional inhibitory concentration index incubated for 24 hrs in the presence of fluconazole by checkerboard microdilution method

[Candida] auris [7] = Antifungal activity against Candida auris 0029 assessed as microbial growth inhibition; type: functional; conditions: Candidozyma auris
[Candida] auris [8] = Antifungal activity against Candida auris 0030 assessed as microbial growth inhibition; type: functional; conditions: Candidozyma auris
Candida albicans [9] = assay: Antifungal activity against Candida albicans 9172 assessed as microbial growth inhibition; type: functional
Candida albicans [10] = assay: Antifungal activity against Candida albicans 10061 assessed as microbial growth inhibition; type: functional
Candida albicans [11] = assay: Antifungal activity against Candida albicans 9884 assessed as microbial growth inhibition; type: functional
Cryptococcus neoformans [12] = assay: Antifungal activity against Cryptococcus neoformans 011405 assessed as microbial growth inhibition; type: functional
[Candida] auris [13] = Synergetic antifungal activity against Candida auris 0029 assessed as microbial growth inhibition incubated for 24 hrs in the presence of fluconazole by checkerboard microdilution method; type: functional; conditions: Candidozyma auris
[Candida] auris [14] = Synergetic antifungal activity against Candida auris 0030 assessed as microbial growth inhibition incubated for 24 hrs in the presence of fluconazole by checkerboard microdilution method; type: functional; conditions: Candidozyma auris
Candida albicans [15] = assay: Synergetic antifungal activity against Candida albicans 9172 assessed as microbial growth inhibition incubated for 24 hrs in the presence of fluconazole by checkerboard microdilution method; type: functional
Candida albicans [16] = assay: Synergetic antifungal activity against Candida albicans 10061 assessed as microbial growth inhibition incubated for 24 hrs in the presence of fluconazole by checkerboard microdilution method; type: functional
Candida albicans [17] = assay: Synergetic antifungal activity against Candida albicans 9884 assessed as microbial growth inhibition incubated for 24 hrs in the presence of fluconazole by checkerboard microdilution method; type: functional
Nakaseomyces glabratus [18] = assay: Synergetic antifungal activity against Candida glabrata 4408 assessed as microbial growth inhibition incubated for 24 hrs in the presence of fluconazole by checkerboard microdilution method; type: functional
Cryptococcus neoformans [19] = assay: Synergetic antifungal activity against Cryptococcus neoformans 011405 assessed as microbial growth inhibition incubated for 24 hrs in the presence of fluconazole by checkerboard microdilution method; type: functional
[Candida] auris [20] = Synergetic antifungal activity against Candida auris 0029 assessed as fractional inhibitory concentration index incubated for 24 hrs in the presence of fluconazole by checkerboard microdilution method; type: functional, Candidozyma auris
[Candida] auris [21] = Synergetic antifungal activity against Candida auris 0030 assessed as fractional inhibitory concentration index incubated for 24 hrs in the presence of fluconazole by checkerboard microdilution method; type: functional, Candidozyma auris
Candida albicans [22] = assay: Synergetic antifungal activity against Candida albicans 9172 assessed as fractional inhibitory concentration index incubated for 24 hrs in the presence of fluconazole by checkerboard microdilution method; type: functional
Candida albicans [23] = assay: Synergetic antifungal activity against Candida albicans 10061 assessed as fractional inhibitory concentration index incubated for 24 hrs in the presence of fluconazole by checkerboard microdilution method; type: functional
Candida albicans [24] = assay: Synergetic antifungal activity against Candida albicans 9884 assessed as fractional inhibitory concentration index incubated for 24 hrs in the presence of fluconazole by checkerboard microdilution method; type: functional
Nakaseomyces glabratus [25] = assay: Synergetic antifungal activity against Candida glabrata 4408 assessed as fractional inhibitory concentration index incubated for 24 hrs in the presence of fluconazole by checkerboard microdilution method; type: functional
Cryptococcus neoformans [26] = assay: Synergetic antifungal activity against Cryptococcus neoformans 011405 assessed as fractional inhibitory concentration index incubated for 24 hrs in the presence of fluconazole by checkerboard microdilution method; type: functional
Candida albicans [27] = assay: Antibiofilm activity against FLC-resistant Candida albicans 0304103 assessed as reduction in fungal growth at 32 ug/mL and measured for 48 hrs by time-growth curve assay; type: functional, organism-based; conditions: dose 32.0 µg/ml
Candida albicans [28] = assay: Synergistic antibiofilm activity against FLC-resistant Candida albicans 0304103 assessed as inhibition of fungal growth at 32 ug/mL and measured for 48 hrs in the presence of fluconazole by time-growth curve assay; type: functional; design: scale not given: the % may be the effect or the level left; conditions: dose 32 µg/ml
Candida albicans [29] = assay: Antibiofilm activity against FLC-resistant Candida albicans 0304103 assessed as inhibition of biofilm formation at 64 ug/mL incubated for 24 hrs by XTT reduction assay; type: functional, organism-based; conditions: dose 64.0 µg/ml
Candida albicans [30] = assay: Synergistic antibiofilm activity against FLC-resistant Candida albicans 0304103 assessed as inhibition of biofilm formation at 64 ug/mL incubated for 24 hrs in presence of by XTT reduction assay relative to control; type: functional; design: scale not given: the % may be the effect or the level left; conditions: dose 64 µg/ml
Candida albicans [31] = assay: Antifungal activity against Candida albicans 0304103 assessed as reduction in yeast to hypha transition at 32 ug/mL incubated for 2 hrs by inverse fluorescence microscopy; type: functional, organism-based; conditions: dose 32.0 µg/ml
Candida albicans [32] = assay: Synergistic antifungal activity against Candida albicans 0304103 assessed as reduction in yeast to hypha transition at 32 ug/mL incubated for 2 hrs in the presence of fluconazole by inverse fluorescence microscopy; type: functional, organism-based; conditions: dose 32.0 µg/ml
Candida albicans [33] = assay: Downregulation of ERG11 expression in Candida albicans 0304103 at 32 ug/mL incubated for 24 hrs in the presence of fluconazole by RT q-PCR analysis; type: functional; conditions: dose 32.0 µg/ml
Candida albicans [34] = assay: Downregulation of ERG11 expression in Candida albicans 0304103 at 32 ug/mL incubated for 24 hrs by RT q-PCR analysis; type: functional; conditions: dose 32.0 µg/ml
Candida albicans [35] = assay: Downregulation of CDR1 expression in Candida albicans 0304103 at 32 ug/mL incubated for 24 hrs by RT q-PCR analysis; type: functional; conditions: dose 32.0 µg/ml
Candida albicans [36] = assay: Downregulation of CDR2 expression in Candida albicans 0304103 at 32 ug/mL incubated for 24 hrs by RT q-PCR analysis; type: functional; conditions: dose 32.0 µg/ml
Candida albicans [37] = assay: Downregulation of MDR1 expression in Candida albicans 0304103 at 32 ug/mL incubated for 24 hrs by RT q-PCR analysis; type: functional; conditions: dose 32.0 µg/ml
Candida albicans [38] = assay: Downregulation of CDR1 expression in Candida albicans 0304103 at 32 ug/mL incubated for 24 hrs in the presence of fluconazole by RT q-PCR analysis; type: functional; conditions: dose 32.0 µg/ml
Candida albicans [39] = assay: Downregulation of CDR2 expression in Candida albicans 0304103 at 32 ug/mL incubated for 24 hrs in the presence of fluconazole by RT q-PCR analysis; type: functional; conditions: dose 32.0 µg/ml
Candida albicans [40] = assay: Downregulation of MDR1 expression in Candida albicans 0304103 at 32 ug/mL incubated for 24 hrs in the presence of fluconazole by RT q-PCR analysis; type: functional; conditions: dose 32.0 µg/ml
Candida albicans [41] = assay: Downregulation of GCA1 expression in Candida albicans 0304103 at 32 ug/mL incubated for 24 hrs by RT q-PCR analysis; type: functional; conditions: dose 32.0 µg/ml
Candida albicans [42] = assay: Downregulation of GCA1 expression in Candida albicans 0304103 at 32 ug/mL incubated for 24 hrs in the presence of fluconazole by RT q-PCR analysis; type: functional; conditions: dose 32.0 µg/ml
Candida albicans [43] = assay: Downregulation of ADH5 expression in Candida albicans 0304103 at 32 ug/mL incubated for 24 hrs by RT q-PCR analysis; type: functional; conditions: dose 32.0 µg/ml
Candida albicans [44] = assay: Downregulation of ADH5 expression in Candida albicans 0304103 at 32 ug/mL incubated for 24 hrs in the presence of fluconazole by RT q-PCR analysis; type: functional; conditions: dose 32.0 µg/ml
Candida albicans [45] = assay: Antifungal activity against Candida albicans 0304103 infected in ICR mouse assessed as reduction in kidney fungal burden at 10 mg/kg, ip administered for 5 consecutive days; type: functional, organism-based; conditions: time 5.0 day
Candida albicans [46] = assay: Antifungal activity against Candida albicans 0304103 infected in ICR mouse assessed as decrease in kidney fungal burden at 10 mg/kg, ip administered for 5 consecutive days in the presence of fluconazole; type: functional, organism-based; conditions: time 5.0 day
in vitro = conditions: human, HUVEC cells
Description: Cytotoxicity against HUVECs assessed as inhibition of cell growth incubated for 48 hrs by CCK8 assay

Histone deacetylase 1, sequence (Q13547 whole entry, the tested form may be a part): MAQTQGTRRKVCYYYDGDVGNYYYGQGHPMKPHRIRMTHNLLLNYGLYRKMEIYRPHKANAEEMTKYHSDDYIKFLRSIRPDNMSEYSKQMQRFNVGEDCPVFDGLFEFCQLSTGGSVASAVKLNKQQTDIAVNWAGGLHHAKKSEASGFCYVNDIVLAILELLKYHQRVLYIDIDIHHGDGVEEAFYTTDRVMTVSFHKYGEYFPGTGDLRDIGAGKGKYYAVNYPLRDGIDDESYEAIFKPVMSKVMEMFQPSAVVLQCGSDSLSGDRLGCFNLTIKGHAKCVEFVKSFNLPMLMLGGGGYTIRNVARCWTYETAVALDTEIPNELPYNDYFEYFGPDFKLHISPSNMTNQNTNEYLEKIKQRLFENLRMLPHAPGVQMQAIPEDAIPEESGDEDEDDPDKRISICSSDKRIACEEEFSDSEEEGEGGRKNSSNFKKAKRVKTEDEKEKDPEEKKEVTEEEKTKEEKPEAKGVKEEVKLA

Cc1nnc2n1-c1sc3c(c1C(c1ccc(Cl)cc1)=N[C@H]2CC(=O)NCc1ccc(C(=O)NO)cc1)CCCC3
IC50 (Histone deacetylase 1): 2.4 µM | MIC80 (Nakaseomyces glabratus [1]): 8 µg/mL (≈ 13.9 µM) | IC50 (HL-60): 3.1 µM | IC50 (Histone deacetylase): 4.3 µM | IC50 (K562): > 10 µM | IC50 (HEL): 7.2 µM | MIC80 (Candida albicans [2]): > 64 µg/mL | MIC80 (Cryptococcus neoformans [3]): 8 µg/mL (≈ 13.9 µM) | MIC80 (Candida albicans [4]): > 64 µg/mL | MIC80 (Candida albicans [5]): 2 µg/mL (≈ 3.48 µM) | fractional inhibitory concentration index (FICI) (Candida albicans [6]): 0.063 | MIC80 ([Candida] auris [7]): > 64 µg/mL | MIC80 ([Candida] auris [8]): > 64 µg/mL | MIC80 (Candida albicans [9]): > 64 µg/mL | MIC80 (Candida albicans [10]): > 64 µg/mL | MIC80 (Candida albicans [11]): > 64 µg/mL | MIC80 (Cryptococcus neoformans [12]): 32 µg/mL (≈ 55.6 µM) | MIC80 ([Candida] auris [13]): 32 µg/mL | MIC80 ([Candida] auris [14]): 32 µg/mL | MIC80 (Candida albicans [15]): 4 µg/mL | MIC80 (Candida albicans [16]): 2 µg/mL | MIC80 (Candida albicans [17]): 4 µg/mL | MIC80 (Nakaseomyces glabratus [18]): 2 µg/mL | MIC80 (Cryptococcus neoformans [19]): 2 µg/mL | fractional inhibitory concentration index (FICI) ([Candida] auris [20]): 1.5 | fractional inhibitory concentration index (FICI) ([Candida] auris [21]): 1.5 | fractional inhibitory concentration index (FICI) (Candida albicans [22]): 0.07 | fractional inhibitory concentration index (FICI) (Candida albicans [23]): 0.047 | fractional inhibitory concentration index (FICI) (Candida albicans [24]): 0.19 | fractional inhibitory concentration index (FICI) (Nakaseomyces glabratus [25]): 0.28 | fractional inhibitory concentration index (FICI) (Cryptococcus neoformans [26]): 0.31 | Activity (Candida albicans [27]): inactive | Activity (Candida albicans [28]): 100% | Activity (Candida albicans [29]): inactive | Activity (Candida albicans [30]): 80% | Activity (Candida albicans [31]): inactive | Activity (Candida albicans [32]): Active | Activity (Candida albicans [33]): Active | Activity (Candida albicans [34]): Active | Activity (Candida albicans [35]): Active | Activity (Candida albicans [36]): Active | Activity (Candida albicans [37]): Active | Activity (Candida albicans [38]): Active | Activity (Candida albicans [39]): Active | Activity (Candida albicans [40]): Active | Activity (Candida albicans [41]): Active | Activity (Candida albicans [42]): Active | Activity (Candida albicans [43]): Active | Activity (Candida albicans [44]): Active | Activity (Candida albicans [45]): inactive | Activity (Candida albicans [46]): Active | IC50 at 48 h (in vitro): 18 µM

Cc1ccc(C2=N[C@@H](CC(=O)Nc3ccc(CC(=O)NO)cc3)c3nnc(C)n3-c3ccccc32)cc1
IC50 (Histone deacetylase 1): 2.9 µM | IC50 (HL-60): 5.1 µM | IC50 (Histone deacetylase): 3.8 µM | IC50 (K562): > 10 µM | IC50 (HEL): > 10 µM | MIC80 (Candida albicans [2]): > 64 µg/mL | MIC80 (Cryptococcus neoformans [3]): 32 µg/mL (≈ 64.7 µM) | MIC80 (Candida albicans [4]): > 64 µg/mL | MIC80 (Candida albicans [5]): 8 µg/mL (≈ 16.2 µM) | fractional inhibitory concentration index (FICI) (Candida albicans [6]): 0.14 | IC50 at 48 h (in vitro): 33 µM

Cc1ccc(C2=N[C@@H](CC(=O)NCc3ccc(C(=O)NO)cc3)c3nnc(C)n3-c3ccccc32)cc1
IC50 (Histone deacetylase 1): 0.89 µM | IC50 (HL-60): > 10 µM | IC50 (Histone deacetylase): 5.8 µM | IC50 (K562): > 10 µM | IC50 (HEL): 7 µM | MIC80 (Candida albicans [2]): > 64 µg/mL | MIC80 (Cryptococcus neoformans [3]): 32 µg/mL (≈ 64.7 µM) | MIC80 (Candida albicans [4]): > 64 µg/mL | MIC80 (Candida albicans [5]): 8 µg/mL (≈ 16.2 µM) | fractional inhibitory concentration index (FICI) (Candida albicans [6]): 0.14 | IC50 at 48 h (in vitro): 20 µM
